These results are taken from ChEMBL document CHEMBL5512692, “Colloidal Aggregation Confounds Cell-Based Covid-19 Antiviral Screens” (J Med Chem, 2024).

Series [1] can be described thus: Inhibition of porcine heart MDH using oxaloacetic acid as substrate preincubated for 5 mins followed by substrate and […] addition and measured for 80 sec by absorbance based analysis. Details: species or system Sus scrofa.
Series [2] is filed under the species Sus scrofa. In words: Inhibition of porcine heart MDH using oxaloacetic acid as substrate assessed as enzyme recovery by measuring residual activity at approximately IC90 preincubated for 5 mins in presence of triton X-0.01% followed by substrate and […] addition and measured for 80 sec by absorbance based analysis relative to control. The conditions noted are these: time 380.0 sec.

The species entered for series [3] is Sus scrofa. The series can be described thus: Inhibition of porcine heart MDH using oxaloacetic acid as substrate assessed as enzyme recovery by measuring residual activity at approximately IC90 preincubated for 5 mins in presence of 10 mg/ml BSA followed by enzyme addition and measured after 5 mins by absorbance based analysis relative to control. Conditions: time 10.0 min.

The nature of series [4]: Absorption property of compound in DMEM media at 100 to 200 uM at 500 to 700 nm by luciferase assay. Type of series: physicochemical. Conditions: dose 100-200 µM.
Series [5] has as its system SARS-CoV-2. In words: Antiviral activity against luciferase independent SARS CoV-2 spike-pseudotyped lentivirus infected in human A549-hACE2-TMPRSS2 cells assessed as inhibition of viral entry at 31.6 to 63.3 uM compound spin-down for 1 hr followed by viral infection and measured after 24 hrs by luciferase reporter assay. The conditions noted are these: Severe acute respiratory syndrome coronavirus 2, dose 31.6-63.3 µM, time 25.0 hrs. Type of series: functional, organism-based. For orientation: A reporter such as luciferase makes a cellular process visible.

For series [6], the system named is SARS-CoV-2. The series can be described thus: Antiviral activity against SARS-CoV-2 infected in Vero E6 cells assessed as reduction in virus induced cytopathic effect pretreated for 30 mins followed by virus infection and measured after 72 hrs by MTS assay. Type of series: functional, organism-based. Conditions: Severe acute respiratory syndrome coronavirus 2, Vero C1008. On the technique in general: Damage to the host cells serves as the signal in cytopathic effect assays.

The nature of series [7]: Aggregation property of compound in 50 mM KPi buffer at pH 7 assessed as critical aggregation concentration by DLS assay. Type of series: physicochemical.
The nature of series [8]: Aggregation property of compound in DMEM media assessed as critical aggregation concentration by DLS assay. Type of series: physicochemical.
Series [9] has as its system SARS-CoV-2. The series can be described thus: Antiviral activity against SARS-CoV-2 infected in Vero E6 cells assessed as reduction in viral infectivity. The conditions noted are these: Severe acute respiratory syndrome coronavirus 2, Vero C1008. Type of series: functional, organism-based.
Series [10] is described as follows: Inhibition of Beta-lactamase AmpC (unknown origin) using CENTA as chromogenic substrate preincubated for 5 mins followed by substrate addition and measured for 80 sec by absorbance based analysis. On the set-up: species or system Bacteria.
Series [11] deals with Bacteria. The series can be described thus: Inhibition of Beta-lactamase AmpC (unknown origin) using CENTA as chromogenic substrate assessed as enzyme recovery by measuring residual activity at approximately IC90 preincubated for 5 mins in presence of triton X-0.01% followed by substrate addition and measured for 80 sec by absorbance based analysis relative to control. The conditions noted are these: time 380.0 sec.

In series [12] the test system is Bacteria. The series can be described thus: Inhibition of Beta-lactamase AmpC (unknown origin) using CENTA as chromogenic substrate assessed as enzyme recovery by measuring residual activity at approximately IC90 preincubated for 5 mins in presence of 10 mg/ml BSA followed by enzyme addition and measured after 5 mins by absorbance based analysis relative to control. The conditions noted are these: time 10.0 min.

The subject of series [13] is SARS-CoV-2. In words: Antiviral activity against SARS CoV-2 spike-pseudotyped lentivirus infected in human A549-hACE2-TMPRSS2 cells assessed as inhibition of viral entry incubated for 24 hrs in absence of BSA by luciferase reporter assay. Type of series: functional, organism-based. The conditions noted are these: Severe acute respiratory syndrome coronavirus 2, A549-hACE2-TMPRSS2, 24 h.

The test system of series [14] is SARS-CoV. In words: Antiviral activity against HIV-Luc pseudotyped SARS CoV infected in Vero E6 cells assessed as reduction in virus entry preincubated for 30 mins followed by infection in cells and measured after 36 hrs by luciferase assay. Type of series: functional, organism-based. Conditions: Severe acute respiratory syndrome-related coronavirus, Vero C1008.

Series [15] has as its system SARS-CoV-2. In words: Antiviral activity against SARS CoV-2 spike-pseudotyped lentivirus infected in human A549-hACE2-TMPRSS2 cells assessed as inhibition of viral entry preincubated with 10 mg/ml BSA for 5 mins followed by viral infection and further incubated for 24 hrs by luciferase reporter assay. The conditions noted are these: Severe acute respiratory syndrome coronavirus 2, A549-hACE2-TMPRSS2. The format is functional, organism-based.

In series [16] the test system is SARS-CoV-2. The series can be described thus: Antiviral activity against luciferase independent SARS CoV-2 spike-pseudotyped lentivirus infected in human A549-hACE2-TMPRSS2 cells assessed as inhibition of viral entry by measuring reduction in luciferase activity incubated for 24 hrs by luciferase reporter assay. The format is functional, organism-based. The conditions noted are these: Severe acute respiratory syndrome coronavirus 2.

The test system of series [17] is SARS-CoV-2. In words: Antiviral activity against luciferase independent SARS CoV-2 spike-pseudotyped lentivirus infected in human A549-hACE2-TMPRSS2 cells assessed as inhibition of viral entry compound spin-down for 1 hr followed by viral infection and measured after 24 hrs by luciferase reporter assay. The conditions noted are these: Severe acute respiratory syndrome coronavirus 2, A549-hACE2-TMPRSS2. Type of series: functional, organism-based.

In series [18] the test system is SARS-CoV-2. In words: Antiviral activity against luciferase independent SARS CoV-2 spike-pseudotyped lentivirus infected in human A549-hACE2-TMPRSS2 cells assessed as inhibition of viral entry measured after 24 hrs before centrifugation by luciferase reporter assay. The format is functional, organism-based. Conditions: Severe acute respiratory syndrome coronavirus 2, A549-hACE2-TMPRSS2.

The target of series [19] is Spike glycoprotein (Severe acute respiratory syndrome coronavirus 2) (UniProt P0DTC2). In words: Binding affinity to Alex-fluor-647 labeled SARS-CoV-2 spike protein assessed as protein-colloid complex formation by measuring fluorescence puncta formation at 200 uM incubated for 5 mins by confocal microscopic analysis.
In series [20] the test system is SARS-CoV-2. In words: Antiviral activity against SARS-CoV-2 pseudovirus infected in 293T/ACE2 cells assessed as reduction in virus entry preincubated with compound followed by infection in cells and measured after 48 hrs by luciferase based assay. The format is functional, organism-based. The conditions noted are these: Severe acute respiratory syndrome coronavirus 2, 293T/ACE2.

In series [21] the test system is SARS-CoV-2. In words: Antiviral activity against SARS-CoV-2. Type of series: functional, organism-based. Conditions: Severe acute respiratory syndrome coronavirus 2.

The structures appear in SMILES notation. pEC50, pIC50: −log10 of the molar value. The source made the active and inactive calls. The calls are words filed in the database; no cut-off is given here.

On to `Cc1ccc(C(=O)Nc2ccc(S(=O)(=O)O)c3cc(S(=O)(=O)O)cc(S(=O)(=O)O)c23)cc1NC(=O)c1cccc(NC(=O)Nc2cccc(C(=O)Nc3cc(C(=O)Nc4ccc(S(=O)(=O)O)c5cc(S(=O)(=O)O)cc(S(=O)(=O)O)c45)ccc3C)c2)c1` [SURAMIN], for which the pIC50 in [1] is 5.92. The Activity in [2] is -4.8%; in [3], 91%; in [4] it was “Not Active”. For the same compound, the outcome in series [5] was Active. In series [6], the negative logarithm of the EC50 (pEC50) was 4.70.
Turning to `COc1cc(/C=C/C(=O)CC(=O)/C=C/c2ccc(O)c(OC)c2)ccc1O` [CURCUMIN], the results for the CAC in series [7] and in series [8] were 26 µM and 12 µM, respectively. Besides, the pIC50 in series [1] was 4.85. Further, the Activity in series [2] was 116%; in series [3], 124%; in series [4], “Not Active”. In addition, the pEC50 in [9] was 4.79.
For `O=C(OC[C@H]1O[C@@H](OC(=O)c2cc(O)c(O)c(O)c2)[C@H](OC(=O)c2cc(O)c(O)c(O)c2)[C@@H](OC(=O)c2cc(O)c(O)c(O)c2)[C@@H]1O)c1cc(O)c(O)c(O)c1`, the CAC is 12 µM in series [7] and 9.8 µM in [8]. The pIC50 in series [10] is 4.89. Also, the Activity in series [11] was 51%; in [12], 80%; in [4], “Not Active”. For the same compound, the results for the pEC50 in series [13] and in [14] were 7.15 and 5.54, respectively.
For the compound `CN1CCCC(n2nc(Cc3ccc(Cl)cc3)c3ccccc3c2=O)CC1` (centres undefined) [AZELASTINE], the pEC50 in series [13] is 4.57; in series [15], 4.35; in series [17], 4.89; in series [18], 4.73. For the same compound, in [16], the outcome was Active. In [19], the result was inactive.
Regarding `C[C@]12CC[C@@H]3c4ccc(OC(=O)c5ccccc5)cc4CC[C@H]3[C@@H]1CC[C@@H]2O` [ESTRADIOL BENZOATE], the CAC was determined as 9.3 µM in series [7] and 1.8 µM in [8]. The compound also had a pIC50 in series [1] of 4.06. For the same compound, the Activity in series [2] was 89.1%; in series [3], 62%; in [4], “Not Active”. Besides, the negative-log EC50 (pEC50) in [20] was 6.57.
Turning to `CC1(C)[C@@H](O[C@H]2O[C@H](C(=O)O)[C@@H](O)[C@H](O)[C@H]2O[C@@H]2O[C@H](C(=O)O)[C@@H](O)[C@H](O)[C@H]2O)CC[C@]2(C)[C@H]3C(=O)C=C4[C@@H]5C[C@@](C)(C(=O)O)CC[C@]5(C)CC[C@@]4(C)[C@]3(C)CC[C@@H]12` [GLYCYRRHIZIN], the CAC came out at 10 µM in series [7] and 15 µM in series [8]. Besides, in series [10], the pIC50 is 4.48. Further, the Activity in series [11] was 47%; in [12], 60%; in series [4] it was “Not Active”. Moreover, the result in series [16] was Active. Also, the values for the pEC50 in [17], in series [18] and in series [21] were 4.34, 5.59 and 2.60, respectively.

For orientation: pIC50 means the IC50 on a negative log10 scale, so that one unit is a factor of ten. Low readings indicate a high IC50, high ones a low IC50. One may read the pEC50 as the EC50 on a negative log10 scale, so that one unit is a factor of ten.
